This note sets out measurements from patent publication US6479460B1, “Synthetic peptides and pseudopeptides having osteogenic activity and pharmaceutical compositions containing the same” (Yissum Research Development Company of the Hebrew …, priority 1996, dated 2002).

Primed or numbered codes have the meaning given here. Where no end group is shown, it is not given here. [ ]: non-standard residue; d: D form. The star is where a group is joined. Desaminotyrosyl = O=C(CCc1ccc(O)cc1)*; Hydrocinnamoyl = O=C(CCc1ccccc1)*; NMeF = CN[C@@H](Cc1ccccc1)C(=O)O; ol″ = C-terminal alcohol; Propionyl = CCC(=O)*; GABA = NCCCC(=O)O; βAla = NCCC(=O)O; Sar = CNCC(=O)O

Test [1] deals with fibroblastic NIH 3T3 cells. Kind of test: Proliferation assay, fibroblastic NIH 3T3 cells. In kind it is cell-based. The following applies: analog concentration 10^−11M; mean cell number relative to positive control OGP(1-14) = 1.00. The source says: (§1) Some of the analogs were subjected to a dose response analysis.
The subject of test [2] is osteoblastic MC3T3 E1 cells. Kind of test: Proliferation assay, osteoblastic MC3T3 E1 cells. Format: cell-based. The following applies: analog concentration 10^−13M; mean cell number relative to positive control OGP(1-14) = 1.00.
From the text: as §1

In the case of (desamino[Phe^10]2OGP(10-14), the “Relative in vitro potency (95% confidence limit) NIH 3T3 cells” value in test [1] is reported as 0.24. Moreover, in test [2], the “Relative in vitro potency (95% confidence limit) MC3T3 E1 cells” value is 0.18.
Taken in the same sequence, the figures for Nα-Ac—OGP(11-14) (Ac-GFGG) were 0.22 and 0.21.
Consider OGP(11-14)-ol (GFGG-{ol″}), for which, in test [1], the “Relative in vitro potency (95% confidence limit) NIH 3T3 cells” value is recorded as 0.38. The “Relative in vitro potency (95% confidence limit) MC3T3 E1 cells” value in test [2] came to 0.24.
For the substance [Ala^10]OGP(10-14) (AGFGG), the “Relative in vitro potency (95% confidence limit) NIH 3T3 cells” value in test [1] was 0.17. In addition, the “Relative in vitro potency (95% confidence limit) MC3T3 E1 cells” value in test [2] came to 0.29.
The like results for [Ala^11]OGP(10-14) (YAFGG) were, in that order, 0.31 and 0.18.
The like results for [Ala^13]OGP(11-14) (GFAG) were, in that order, 0.10 and 0.22.
On to [Ala^14]OGP(11-14) (GFGA), for which the “Relative in vitro potency (95% confidence limit) NIH 3T3 cells” value in test [1] is on record as 0.10. Moreover, the “Relative in vitro potency (95% confidence limit) MC3T3 E1 cells” value in test [2] was found to be 0.17.
For [D-Ala^10]OGP(10-14), the “Relative in vitro potency (95% confidence limit) NIH 3T3 cells” value in test [1] was 0.16. In test [2], the “Relative in vitro potency (95% confidence limit) MC3T3 E1 cells” value was determined as 0.12.
Taken in the same sequence, the figures for [D-Ala^13]OGP(10-14) were 0.26 and 0.14.
Taken in the same sequence, the figures for [Phe^10]OGP(10-14) (FGFGG) were 0.32 and 0.41.
On to [β-Ala^11]OGP(10-14) (Y[βAla]FGG), for which, in test [1], the “Relative in vitro potency (95% confidence limit) NIH 3T3 cells” value was 0.17. Besides, the “Relative in vitro potency (95% confidence limit) MC3T3 E1 cells” value in test [2] is reported as 0.29.
As to “c(Gly-Tyr-Gly-Phe-Gly-Asp)-OH (GYGFGD-OH; lactam (positions not given here); also: cyclic, closure site not given here)”, the “Relative in vitro potency (95% confidence limit) NIH 3T3 cells” value in test [1] is 0.16. In test [2], the “Relative in vitro potency (95% confidence limit) MC3T3 E1 cells” value is 0.15.
Turning to “c(Gly-Tyr-Gly-Phe-Gly-Gly) (GYGFGG; cyclic)”, the “Relative in vitro potency (95% confidence limit) NIH 3T3 cells” value in test [1] worked out at 0.20. For the same substance, the “Relative in vitro potency (95% confidence limit) MC3T3 E1 cells” value in test [2] came to 0.26.
Turning to c(Tyr-Cly-Phe-Gly) (YGFG; cyclic), the “Relative in vitro potency (95% confidence limit) NIH 3T3 cells” value in test [1] came to 0.43. Moreover, the “Relative in vitro potency (95% confidence limit) MC3T3 E1 cells” value in test [2] came out at 0.35.
Taken in the same sequence, the figures for “c(Tyr-Gly-Phe-Gly-Asp)-OH (YGFGD-OH; lactam (positions not given here); also: cyclic, closure site not given here)” were 0.11 and 0.14.
The like results for “c(β-Ala-Tyr-Gly-Phe-Gly-Gly) (cyclo([βAla]YGFGG); SMILES O=C1CNC(=O)CNC(=O)[C@H](Cc2ccccc2)NC(=O)CNC(=O)[C@H](Cc2ccc(O)cc2)NC(=O)CCN1)” were, in that order, 0.37 and 0.36.
As to “c(γ-Abu-Tyr-Gly-Phe-Gly-Gly) (cyclo([GABA]YGFGG); SMILES O=C1CNC(=O)CNC(=O)[C@H](Cc2ccccc2)NC(=O)CNC(=O)[C@H](Cc2ccc(O)cc2)NC(=O)CCCN1)”, the “Relative in vitro potency (95% confidence limit) NIH 3T3 cells” value in test [1] turned out to be 0.22. For the same substance, the “Relative in vitro potency (95% confidence limit) MC3T3 E1 cells” value in test [2] turned out to be 0.20.
As to c(δ-Ala-Tyr-Gly-Phe-Gly-Asp)-OH, the “Relative in vitro potency (95% confidence limit) NIH 3T3 cells” value in test [1] was 0.11. The “Relative in vitro potency (95% confidence limit) MC3T3 E1 cells” value in test [2] is listed as 0.20.
The like results for c(δ-Ala-Tyr-Gly-Phe-Gly-Gly) were, in that order, 0.18 and 0.14.
Taken in the same sequence, the figures for des[Gly^11]OGP(10-14) were 0.17 and 0.21.
Turning to “desamino Tyr-CH2-Gly-Phe-Gly-Gly ([Desaminotyrosyl]GFGG; also: reduced amide bond Tyr-CH2-Gly) [desamino[Tyr^10ψ(CH2NH)Gly^11]OGP(10-14)]”, the “Relative in vitro potency (95% confidence limit) NIH 3T3 cells” value in test [1] was determined as 0.79. For the same substance, in test [2], the “Relative in vitro potency (95% confidence limit) MC3T3 E1 cells” value is given as 0.81.
Taken in the same sequence, the figures for “desamino Tyr-Gly-N(CH3)-CH(CH2C6H5)-C(O)-Gly-Gly ([Desaminotyrosyl]G[NMeF]GG) [desamino[Tyr^10,N(Me)-Phe^12]OGP(10-14)]” were 0.67 and 0.52.
As to “desamino Tyr-Gly-NH-CH(CH2C6H5)-CH2-Gly-Gly ([Desaminotyrosyl]GFGG; also: reduced amide bond Phe-Gly (NH-CH(CH2C6H5)-CH2-NH))”, the “Relative in vitro potency (95% confidence limit) NIH 3T3 cells” value in test [1] amounted to 0.88. The “Relative in vitro potency (95% confidence limit) MC3T3 E1 cells” value in test [2] came out at 0.70.
In the case of “desamino Tyr-Gly-Phe-NH-CH2-CH2-CH2-CH2-C(O)-OH”, the “Relative in vitro potency (95% confidence limit) NIH 3T3 cells” value in test [1] is 0.188. For the same substance, the “Relative in vitro potency (95% confidence limit) MC3T3 E1 cells” value in test [2] came to 0.78.
For the substance “desamino Tyr-Gly-Phe-NH-CH2-CH2-Gly (YGFGG; not fully specified; desamino Tyr10; reduced CH2NH bond Gly13-Gly14)”, the “Relative in vitro potency (95% confidence limit) NIH 3T3 cells” value in test [1] came to 0.80. The “Relative in vitro potency (95% confidence limit) MC3T3 E1 cells” value in test [2] amounted to 0.78.
Taken in the same sequence, the figures for “desamino Tyr-NH-CH2-CH2-Phe-Gly-Gly ([Desaminotyrosyl]GFGG; also: Gly2-Phe3 bond reduced, ψ(CH2NH))” were 0.67 and 0.61.
Consider “desamino[Ala^10]OGP(10-14) ([Propionyl]GFGG)”, for which the “Relative in vitro potency (95% confidence limit) NIH 3T3 cells” value in test [1] stood at 0.09. Moreover, the “Relative in vitro potency (95% confidence limit) MC3T3 E1 cells” value in test [2] was 0.28.
The like results for “desamino[Phe^10]OGP(10-14) ([Hydrocinnamoyl]GFGG)” were, in that order, 0.48 and 0.35.
Taken in the same sequence, the figures for “desamino[Tyr^10,Ala^12]OGP(10-14) [desamino[Tyr^10,Ala^12]OGP(10-14) (SEQ ID NO: 20)]” were 0.43 and 0.41.
Consider “desamino[Tyr^10,Ala^12]OGP(10-14) [desamino[Tyr^10,Ala^12]OGP(10-14) (SEQ ID NO: 21)] ([Desaminotyrosyl]GAGG)”, for which the “Relative in vitro potency (95% confidence limit) NIH 3T3 cells” value in test [1] is recorded as 0.16. The “Relative in vitro potency (95% confidence limit) MC3T3 E1 cells” value in test [2] was 0.21.
The like results for “desamino[Tyr^10,Ala^13]OGP(10-14) ([Desaminotyrosyl]GFAG)” were, in that order, 0.15 and 0.27.
As for “desamino[Tyr^10,Ala^14]OGP(10-14) ([Desaminotyrosyl]GFGA)”, the “Relative in vitro potency (95% confidence limit) NIH 3T3 cells” value in test [1] stood at 0.16. Besides, the “Relative in vitro potency (95% confidence limit) MC3T3 E1 cells” value in test [2] came out at 0.19.
On to desamino[Tyr^10,D-Ala^11]OGP(10-14), for which the “Relative in vitro potency (95% confidence limit) NIH 3T3 cells” value in test [1] is 0.19. Moreover, in test [2], the “Relative in vitro potency (95% confidence limit) MC3T3 E1 cells” value came to 0.21.
For desamino[Tyr^10,D-Ala^12]OGP(10-14), the “Relative in vitro potency (95% confidence limit) NIH 3T3 cells” value in test [1] turned out to be 0.02. Also, in test [2], the “Relative in vitro potency (95% confidence limit) MC3T3 E1 cells” value came to 0.30.
As for desamino[Tyr^10,D-Ala^13]OGP(10-14), in test [1], the “Relative in vitro potency (95% confidence limit) NIH 3T3 cells” value is 0.23. The “Relative in vitro potency (95% confidence limit) MC3T3 E1 cells” value in test [2] is reported as 0.28.
As for desamino[Tyr^10,D-Ala^14]OGP(10-14), the “Relative in vitro potency (95% confidence limit) NIH 3T3 cells” value in test [1] was found to be 0.32. In test [2], the “Relative in vitro potency (95% confidence limit) MC3T3 E1 cells” value was 0.41.
The like results for “desamino[Tyr^10,Sar^11]OGP(10-14) [desamino[Tyr^10,Sar^11]OGP(10-14) (SEQ ID NO: 31)] ([Desaminotyrosyl][Sar]FGG)” were, in that order, 0.39 and 0.31.
The like results for “desamino[Tyr^10,Sar^11]OGP(10-14) [desamino[Tyr^10,Sar^11]OGP(10-14) (SEQ ID NO: 34)]” were, in that order, 0.14) and 0.16.
As for “desamino[Tyr^10,Sar^13]OGP(10-14) ([Desaminotyrosyl]GF[Sar]G)”, the “Relative in vitro potency (95% confidence limit) NIH 3T3 cells” value in test [1] was found to be 0.11. Moreover, in test [2], the “Relative in vitro potency (95% confidence limit) MC3T3 E1 cells” value was found to be 0.15.
Taken in the same sequence, the figures for “desamino[Tyr^10]OGP(10-13)—NH(CH2)2NH2 ([Desaminotyrosyl]GFG-{NH(CH2)2NH2})” were 0.17 and 0.18.
For “desamino[Tyr^10]OGP(10-13)—NHEt ([Desaminotyrosyl]GFG-NHEt; SMILES CCNC(=O)CNC(=O)[C@H](Cc1ccccc1)NC(=O)CNC(=O)CCc1ccc(O)cc1)”, in test [1], the “Relative in vitro potency (95% confidence limit) NIH 3T3 cells” value came to 0.20. Besides, the “Relative in vitro potency (95% confidence limit) MC3T3 E1 cells” value in test [2] is 0.19.
The like results for “desamino[Tyr^10]OGP(10-14)—N(Me)2 ([Desaminotyrosyl]GFGG-{N(Me)2})” were, in that order, 0.16 and 0.12.
Taken in the same sequence, the figures for “desamino[Tyr^10]OGP(10-14)—NH2 ([Desaminotyrosyl]GFGG-NH2; SMILES NC(=O)CNC(=O)CNC(=O)[C@H](Cc1ccccc1)NC(=O)CNC(=O)CCc1ccc(O)cc1)” were 0.16 and 0.20.
